Experimental data published in EP4707277A1, “NOVEL HETEROCYCLIC AMINE DERIVATIVES AND PHARMACEUTICAL COMPOSITION COMPRISING SAME” (Daewoong Pharmaceutical Co., Ltd., priority 2023, dated 2024).
Read-outs that look alike come from different tables or passages of the source.

Experiments:
[1] = target: T1, BTK (Homo sapiens, UniProt Q06187); assay: Inhibitory activity against BTK, ADP-Glo Kinase system (Promega); format: biochemical
T1 construct: purchased Signalchem B10-10H
How it was run: (§1)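 ADP-Glo luminescent ADP detection with recombinant human ITK (4 ng/reaction) or BTK (10 ng/reaction) and poly(Glu4,Tyr1) substrate at 0.2 µg/µl. Buffer: Tris pH 7.5, MgCl2, MnCl2, BSA, DTT. ATP 1 mM or Km (BTK 10 µM, ITK 25 µM); 1% DMSO; 1 h at 30°C; IC50 from curve fit.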

[2] = target: T2, ITK (Homo sapiens, UniProt Q08881); assay: Inhibitory activity against ITK, ADP-Glo Kinase system (Promega); format: biochemical
T2 construct: purchased Signalchem I13-11G-10
T2 sequence (Q08881 1-620): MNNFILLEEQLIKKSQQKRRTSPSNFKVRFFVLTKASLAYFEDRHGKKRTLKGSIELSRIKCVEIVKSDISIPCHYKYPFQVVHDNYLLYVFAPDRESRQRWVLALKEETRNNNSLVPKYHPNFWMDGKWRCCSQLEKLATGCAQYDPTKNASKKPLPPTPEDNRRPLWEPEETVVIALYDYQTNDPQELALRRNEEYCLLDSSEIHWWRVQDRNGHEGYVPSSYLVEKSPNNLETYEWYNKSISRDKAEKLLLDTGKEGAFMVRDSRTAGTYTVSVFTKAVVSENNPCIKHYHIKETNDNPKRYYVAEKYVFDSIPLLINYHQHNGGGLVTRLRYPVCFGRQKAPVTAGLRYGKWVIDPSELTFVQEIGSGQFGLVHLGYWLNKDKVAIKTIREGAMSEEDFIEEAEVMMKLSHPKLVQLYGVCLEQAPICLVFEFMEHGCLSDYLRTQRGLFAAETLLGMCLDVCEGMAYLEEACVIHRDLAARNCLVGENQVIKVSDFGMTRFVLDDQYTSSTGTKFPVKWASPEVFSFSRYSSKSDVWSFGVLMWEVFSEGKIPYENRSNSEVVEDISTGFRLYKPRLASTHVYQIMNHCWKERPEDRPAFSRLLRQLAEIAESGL
How it was run: as §1

[3] = 1mM ATP, read-out: BTK IC50(nM) 1mM ATP
[4] = 1mM ATP, read-out: ITK IC50(nM) 1mM ATP
[5] = Km ATP (BTK: 10 uM), read-out: BTK IC50(nM) Km ATP
[6] = Km ATP (ITK: 25uM), read-out: ITK IC50(nM) Km ATP

T1 sequence (Q06187 whole entry): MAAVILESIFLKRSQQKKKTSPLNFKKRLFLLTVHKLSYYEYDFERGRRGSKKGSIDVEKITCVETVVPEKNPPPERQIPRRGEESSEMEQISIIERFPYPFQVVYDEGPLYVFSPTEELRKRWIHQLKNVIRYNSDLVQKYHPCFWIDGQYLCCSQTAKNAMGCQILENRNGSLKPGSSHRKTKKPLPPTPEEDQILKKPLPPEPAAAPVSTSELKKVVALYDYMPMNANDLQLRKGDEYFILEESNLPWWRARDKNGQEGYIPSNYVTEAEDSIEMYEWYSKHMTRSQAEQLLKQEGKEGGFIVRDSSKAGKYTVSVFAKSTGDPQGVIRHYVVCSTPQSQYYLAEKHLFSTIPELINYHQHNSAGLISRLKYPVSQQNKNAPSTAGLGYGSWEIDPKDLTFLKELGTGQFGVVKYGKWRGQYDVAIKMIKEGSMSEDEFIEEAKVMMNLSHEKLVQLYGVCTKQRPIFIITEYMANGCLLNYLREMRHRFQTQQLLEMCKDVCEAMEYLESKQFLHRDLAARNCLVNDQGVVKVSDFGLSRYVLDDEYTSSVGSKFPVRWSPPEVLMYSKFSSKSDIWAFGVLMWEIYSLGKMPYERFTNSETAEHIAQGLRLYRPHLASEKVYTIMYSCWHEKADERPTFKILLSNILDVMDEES

SMILES	IC50 [1, 3] [nM]	IC50 [2, 4] [nM]	IC50 [1, 5] [nM]	IC50 [2, 6] [nM]
C=CC(=O)N1CC(C)(Oc2nc(Nc3ncc(C)s3)cc3c2ccn3CC)C1 [Example 155, 1-(3-((1-ethyl-6-((5-methylthiazol-2-yl)amino)-1H-pyrrolo[3,2-c]pyridin-4-yl)oxy)-3-methylazetidin-1-yl)prop-2-en-1-one]	≤ 20	20 to 100		
C=CC(=O)N1CC=C(c2nc(Nc3ncc(C)s3)cc3c2ccn3CC(F)(F)F)CC1 [Example 19, 1-(4-(6-((5-methylthiazol-2-yl)amino)-1-(2,2,2-trifluoroethyl)-1H-pyrrolo[3,2-c]pyridin-4-yl)-3,6-dihydropyridin-1(2H)-yl)prop-2-en-1-one]	20 to 100	100 to 500	≤ 20	≤ 20
C=CC(=O)Nc1cccc(-c2nc(Nc3ncc(C)s3)cc3c2ccn3CC(C)C)c1C [Example 62, N-(3-(1-isobutyl-6-((5-methylthiazol-2-yl)amino)-1H-pyrrolo[3,2-c]pyridin-4-yl)-2-methylphenyl)acrylamide]	≤ 20	20 to 100		
C=CC(=O)Nc1ccc(F)c(-c2nc(Nc3ncc(C)s3)cc3c2ccn3CC2CCOC2)c1 (stereo not drawn) [Example 71, N-(4-fluoro-3-(6-((5-methylthiazol-2-yl)amino)-1-((tetrahydrofuran-3-yl)methyl)-1H-pyrrolo[3,2-c]pyridin-4-yl)phenyl)acrylamide]			≤ 20	≤ 20
C=CC(=O)N1CC(C)(Oc2nc(Nc3ncc(C)s3)cc3c2ccn3CC2CCCC2)C1 [Example 178, 1-(3-((1-(cyclopentylmethyl)-6-((5-methylthiazol-2-yl)amino)-1H-pyrrolo[3,2-c]pyridin-4-yl)oxy)-3-methylazetidin-1-yl)prop-2-en-1-one]	≤ 20	≤ 20		
C=CC(=O)N1C[C@@H](OC)C[C@@H]1COc1nc(Nc2ncc(C)s2)cc2c1ccn2C(C)C [Example 94, 1-((2R,4S)-2-(((1-isopropyl-6-((5-methylthiazol-2-yl)amino)-1H-pyrrolo[3,2-c]pyridin-4-yl)oxy)methyl)-4-methoxypyrrolidin-1-yl)prop-2-en-1-one]	≤ 20	≤ 20		
C=CC(=O)N1C[C@H](F)[C@H](Oc2nc(Nc3ccn(C)n3)cc3c2ccn3CC(C)C)C1 [Example 197, 1-((3S,4R)-3-fluoro-4-((1-isobutyl-6-((1-methyl-1H-pyrazol-3-yl)amino)-1H-pyrrolo[3,2-c]pyridin-4-yl)oxy)pyrrolidin-1-yl)prop-2-en-1-one]	> 500	> 500		
C=CC(=O)N1CC=C(c2nc(Nc3ncc(C)s3)cc3c2ccn3C(C)(C)C#N)CC1 [Example 22, 2-(4-(1-acryloyl-1,2,3,6-tetrahydropyridin-4-yl)-6-((5-methylthiazol-2-yl)amino)-1H-pyrrolo[3,2-c]pyridin-1-yl)-2-methylpropanenitrile]			≤ 20	≤ 20
C=CC(=O)N1CC(Oc2nc(Nc3ncc(C)s3)cc3c2ccn3CC(C)C)C1 [Example 118, 1-(3-((1-isobutyl-6-((5-methylthiazol-2-yl)amino)-1H-pyrrolo[3,2-c]pyridin-4-yl)oxy)azetidin-1-yl)prop-2-en-1-one]			20 to 100	20 to 100
C=CC(=O)Nc1c(C)ccc(-c2nc(Nc3ncc(C)s3)cc3c2ccn3C)c1C [Example 56, N-(2,6-dimethyl-3-(1-methyl-6-((5-methylthiazol-2-yl)amino)-1H-pyrrolo[3,2-c]pyridin-4-yl)phenyl)acrylamide]	≤ 20	> 500	≤ 20	≤ 20
C=CC(=O)N1CC[C@H](Oc2nc(Nc3cc(OC)ncn3)cc3c2ccn3C(C)C)C1 [Example 103, (S)-1-(3-((1-isopropyl-6-((6-methoxypyrimidin-4-yl)amino)-1H-pyrrolo[3,2-c]pyridin-4-yl)oxy)pyrrolidin-1-yl)prop-2-en-1-one]	≤ 20	20 to 100		
C=CC(=O)Nc1ccc(F)c(-c2nc(Nc3ncc(C)s3)cc3c2ccn3CC(C)C)c1 [Example 63, N-(4-fluoro-3-(1-isobutyl-6-((5-methylthiazol-2-yl)amino)-1H-pyrrolo[3,2-c]pyridin-4-yl)phenyl)acrylamide]	20 to 100	100 to 500	≤ 20	20 to 100
C=CC(=O)Nc1cc(-c2nc(Nc3ncc(C)s3)cc3c2ccn3CC(C)C)c(F)cc1F [Example 67, N-(2,4-difluoro-5-(1-isobutyl-6-((5-methylthiazol-2-yl)amino)-1H-pyrrolo[3,2-c]pyridin-4-yl)phenyl)acrylamide]	≤ 20	20 to 100	≤ 20	≤ 20
C=CC(=O)N1C2C=C(c3nc(Nc4ncc(C)s4)cc4c3ccn4C(C)C)CC1COC2 (stereo not drawn) [Example 27, 1-(7-(1-isopropyl-6-((5-methylthiazol-2-yl)amino)-1H-pyrrolo[3,2-c]pyridin-4-yl)-3-oxa-9-azabicyclo[3.3.1]non-6-en-9-yl)prop-2-en-1-one]			≤ 20	≤ 20
C=CC(=O)N1CC(Oc2nc(Nc3ncc(C)s3)cc3c2ccn3CCOC)C1 [Example 146, 1-(3-((1-(2-methoxyethyl)-6-((5-methylthiazol-2-yl)amino)-1H-pyrrolo[3,2-c]pyridin-4-yl)oxy)azetidin-1-yl)prop-2-en-1-one]	≤ 20	≤ 20		
C=CC(=O)N1C[C@H](F)[C@H](Oc2nc(Nc3ncc(C#N)s3)cc3c2ccn3CC(C)C)C1 [Example 181, 2-((4-(((3R,4S)-1-acryloyl-4-fluoropyrrolidin-3-yl)oxy)-1-isobutyl-1H-pyrrolo[3,2-c]pyridin-6-yl)amino)thiazole-5-carbonitrile]	≤ 20	≤ 20		
C=CC(=O)N1CC(Oc2nc(Nc3ncc(C)s3)cc3c2ccn3C(C)C)C1 [Example 80, 1-(3-((1-isopropyl-6-((5-methylthiazol-2-yl)amino)-1H-pyrrolo[3,2-c]pyridin-4-yl)oxy)azetidin-1-yl)prop-2-en-1-one]	≤ 20	≤ 20	≤ 20	≤ 20
C=CC(=O)N1CC[C@H](Oc2nc(Nc3cc(C)[nH]n3)cc3c2ccn3C(C)C)C1 [Example 194, (S)-1-(3-((1-isopropyl-6-((5-methyl-1H-pyrazol-3-yl)amino)-1H-pyrrolo[3,2-c]pyridin-4-yl)oxy)pyrrolidin-1-yl)prop-2-en-1-one]	≤ 20	20 to 100		
C=CC(=O)N1CC=C(c2nc(Nc3cc(C(F)(F)F)ncn3)cc3c2ccn3C(C)C)CC1 [Example 45, 1-(4-(1-isopropyl-6-((6-(trifluoromethyl)pyrimidin-4-yl)amino)-1H-pyrrolo[3,2-c]pyridin-4-yl)-3,6-dihydropyridin-1(2H)-yl)prop-2-en-1-one]	20 to 100	100 to 500		
C=CC(=O)N1CCC[C@H](Oc2nc(Nc3ncc(C)s3)cc3c2ccn3CCC)C1 [Example 160, (S)-1-(3-((6-((5-methylthiazol-2-yl)amino)-1-propyl-1H-pyrrolo[3,2-c]pyridin-4-yl)oxy)piperidin-1-yl)prop-2-en-1-one]	100 to 500	100 to 500		
C=CC(=O)N1CC[C@H](Oc2nc(Nc3ncc(C)s3)cc3c2ccn3Cc2ccccc2)C1 [Example 121, (S)-1-(3-((1-benzyl-6-((5-methylthiazol-2-yl)amino)-1H-pyrrolo[3,2-c]pyridin-4-yl)oxy)pyrrolidin-1-yl)prop-2-en-1-one]			≤ 20	≤ 20
C=CC(=O)N1CC[C@H](Oc2nc(Nc3ncc(C)s3)cc3c2ccn3CC2CCCCC2)C1 [Example 129, (S)-1-(3-((1-(cyclohexylmethyl)-6-((5-methylthiazol-2-yl)amino)-1H-pyrrolo[3,2-c]pyridin-4-yl)oxy)pyrrolidin-1-yl)prop-2-en-1-one]	≤ 20	≤ 20		
C=CC(=O)N1CC(C)(Oc2nc(Nc3ncc(C)s3)cc3c2ccn3C)C1 [Example 166, 1-(3-methyl-3-((1-methyl-6-((5-methylthiazol-2-yl)amino)-1H-pyrrolo[3,2-c]pyridin-4-yl)oxy)azetidin-1-yl)prop-2-en-1-one]	≤ 20	≤ 20		
C=CC(=O)N1CC=C(c2nc(Nc3cc(F)ccn3)cc3c2ccn3C(C)C)CC1 [Example 47, 1-(4-(6-((4-fluoropyridin-2-yl)amino)-1-isopropyl-1H-pyrrolo[3,2-c]pyridin-4-yl)-3,6-dihydropyridin-1(2H)-yl)prop-2-en-1-one]	≤ 20	20 to 100		
C=CC(=O)N1C[C@@H](Oc2nc(Nc3ncc(C)s3)cc3c2ccn3CC(C)C)C[C@H]1C [Example 96, 1-((2R,4S)-4-((1-isobutyl-6-((5-methylthiazol-2-yl)amino)-1H-pyrrolo[3,2-c]pyridin-4-yl)oxy)-2-methylpyrrolidin-1-yl)prop-2-en-1-one]	≤ 20	≤ 20		
